{"source": "patent US7320970B2", "about": "“Low dose estrogen interrupted hormone replacement therapy” (Duramed Pharmaceutials, Inc., priority 1999, dated 2008)", "origin": "cited, not measured here", "key": {"[1]": {"molecular_target": "T1, human sex-hormone-binding globulin (SHBG) (Homo sapiens, UniProt P04278)", "T1 sequence (P04278 30-402)": "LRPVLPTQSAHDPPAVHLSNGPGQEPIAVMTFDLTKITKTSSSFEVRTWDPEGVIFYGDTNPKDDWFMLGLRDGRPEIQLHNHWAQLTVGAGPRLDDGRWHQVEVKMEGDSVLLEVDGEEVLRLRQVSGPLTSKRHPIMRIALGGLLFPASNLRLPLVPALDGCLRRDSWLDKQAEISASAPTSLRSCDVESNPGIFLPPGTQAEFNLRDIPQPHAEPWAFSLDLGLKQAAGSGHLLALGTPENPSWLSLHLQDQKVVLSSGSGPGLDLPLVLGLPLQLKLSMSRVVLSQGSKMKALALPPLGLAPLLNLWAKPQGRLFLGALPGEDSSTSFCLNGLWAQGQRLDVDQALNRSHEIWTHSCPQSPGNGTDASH"}}, "data": [{"smiles": "CC(=O)O[C@]1(C(C)=O)CC[C@H]2[C@@H]3C=C(C)C4=CC(=O)CC[C@]4(C)[C@H]3CC[C@@]21C", "note": "[megestrol acetate]", "values": [{"measurement": "decrease in the frequency of hot flushes", "setting": "hot flushes; dose of 20 to 80 mg/day, versus 21 percent with placebo", "value": 85, "unit": "%"}]}, {"smiles": "C#C[C@]1(OC(C)=O)CC[C@H]2[C@@H]3CCC4=C/C(=N/O)CC[C@@H]4[C@H]3CC[C@@]21CC", "note": "[norgestimate, D-17β-acetoxy-B-ethyl-17α ethinyl-gon-4-en-3-one oxime]", "values": [{"measurement": "binding to progestin receptors", "setting": "progestin receptors", "value": "binds to progestin receptors"}, {"measurement": "affinity for SHBG", "setting": "[1]", "value": "lack of affinity for SHBG"}]}, {"smiles": "C#C[C@]1(OC(C)=O)CC[C@H]2[C@@H]3CCC4=CC(=O)CC[C@@H]4[C@H]3CC[C@@]21C", "note": "[norethindrone acetate]", "values": [{"measurement": "effectiveness against hot flushes", "setting": "hot flushes; 10 mg daily", "value": "effective"}]}]}
